Measurements taken from patent US20190297890A1, “FUNGICIDAL COMPOUNDS AND MIXTURES FOR FUNGAL CONTROL IN CEREALS” (Dow AgroSciences LLC, priority 2016, published 2019).

System: Zymoseptoria tritici (SEPTTR)
Assay: Field assessment of Zymoseptoria tritici (SEPTTR) in wheat, three field trials
Format: in vivo, Zymoseptoria tritici on winter wheat (TRZAW)
Conditions: average over 3 field trials
Source text: Treatments consisted of the compound of Formula I and chlorothalonil either using individually or as a two-way mixture with the compound of Formula I. The compound of Formula I was applied with Agnique BP-420 (50% w/w at 0.3% v/v) at 75 and 150 g ai/ha and chlorothalonil (Bravo 500) was applied at 375 and 500 g ai/ha. Commercial standards used in the studies were Fluxapyroxad (Imtrex), applied at 100 g ai/ha, and Metconazole+Fluxapyroxad (Librax), applied at 161 g ai/ha.
Field Assessment of Zymoseptoria tritici (SEPTTR) in Wheat:
Fungicidal treatments containing the compound of Formula I and chlorothalonil, either individually or as a two way mixture, were assessed against leaf spot of wheat (SEPTTR) in three separate field trials. In the first trial, fungicidal treatments were applied at BBBCH37 (curative, 3% infection at application on L3) growth stage of winter wheat (TRZAW, Dinosor variety) under naturally occurring infection with SEPTTR. The treatments were part of an experimental trial designed as a randomized complete block with four replications and a plot of approximately 1×6 m. Treatments were applied at water volume of 200 L/ha, using a backpack plot sprayer (BKPCKENG, FLATFANA nozzle) and pressurized at 200 kPa.
In the second trial, fungicidal treatments were applied twice at BBCH32 (curative, 25% infection at application on L5) and BBBCH37-39 (5% infection at application on L3) growth stages of winter wheat (TRZAW, Consort variety) under naturally occurring infection with SEPTTR. The treatments were part of an experimental trial designed as a randomized complete block with four replications and a plot of approximately 1×2 m. Treatments were applied at water volume of 200 L/ha, using a backpack plot sprayer (BKPCKAIR, Flat fan nozzle) and pressurized at 210 kPa.
In the final trial, fungicidal treatments were applied twice at BBCH32 (protective, 15% infection at application on L6) and BBBCH37-39 (12% infection at application on L5) growth stages of winter wheat (TRZAW, Smaragd variety) under naturally occurring infection with SEPTTR. […]
Disease severity (percentage of visual diseased foliage on whole plot or leaves) in […] was recorded following EPPO PP1/26 guideline prescriptions. Area under the disease progress curve (AUDPC) was calculated for each plot in both trials using the sets of recorded severity data. Relative AUDPC (% control based on AUDPC) was calculated as percent of the nontreated control. Final results for the control of leaf spot of wheat by the compound of Formula I, chlorothalonil, and mixtures are reported as an average of the relative AUDPC calculated over all three field trials. […]

Row | SMILES | SEPTTR % Control based on AUDPC (375 g ai/ha) | SEPTTR % Control based on AUDPC (500 g ai/ha) | SEPTTR % Control based on AUDPC (75 g ai/ha, with Agnique BP-420 (50% w/w at 0.3% v/v)) | SEPTTR % Control based on AUDPC (150 g ai/ha, with Agnique BP-420 (50% w/w at 0.3% v/v))
1 | N#Cc1c(Cl)c(Cl)c(Cl)c(C#N)c1Cl [Chlorothalonil, tetrachloroisophthal-onitrile] | 31.8% | 37.8% |  | 
2 | N#Cc1ccc(Oc2ccc(C(F)(F)C(O)(Cn3nc[nH]c3=S)c3ccc(F)cc3F)nc2)cc1 (stereo not shown) [Compound I, 4-((6-(2-(2,4-difluorophenyl)-1,1-difluoro-2-hydroxy-3-(5-thioxo-4,5-dihydro-1H-1,2,4-triazol-1-yl)propyl)pyridin-3-yl)oxy)benzonitrile] |  |  | 61.2% | 72.2%
